# According to US10961274B2, “Self-assembling peptides comprising non-ionic polar amino acids for anti-adhesion” (3-D Matrix, Ltd., priority 2015, dated 2021):
# Peptide text beside a SMILES is read from it.
# Key:
# [1] = Autoclave stability/sterilization, mass spectrometry before and after autoclave; format: physicochemical; conditions: 121° C. for 25 min, high pressure saturated steam; N-terminus and C-terminus not protected
# Text: Sterilization is a very important step in the manufacturing process for all biomaterials, including the self-assembling peptide solutions.
# [2] = Dissolution in deionized water and visual appearance of peptide solution; format: physicochemical
# Experimental: ST14 and T14 were tested for dissolution in deionized water and appearance in solution at various concentrations.
# [3] = pH of peptide solutions in deionized water; format: physicochemical
# Experimental: The pH of the peptides in deionized water to provide a peptide solution were measured at various concentrations. […] ST14 and T14 were tested. The recorded pH values ranged from about 1.9 to about 2.5.
# [4] = Congo Red assay of gel formation in PBS buffer (pH 7.4); format: physicochemical
# Experimental: A Congo Red assay was performed to determine gel formation of peptide solutions in a PBS buffer solution (pH 7.4). 100 μl of each gel at varying concentrations were plated on a glass slide. After 30 seconds, 500 μl of a 1% Congo Red solution in PBS buffer (pH 7.4) was added around and on top of each of the gel aliquots and then the excess Congo Red solution was wiped off prior to examination.
# ST14 and T14 were plated at varying concentrations of 0.5%, 1.0%, 1.5%, 2.0%, 2.5% and 5.0%. Visualization of gel formation determined the success or failure of gelation at each concentration.
# [5] = Atomic Force Microscopy (AFM) morphological study of peptide nano structures; format: physicochemical; conditions: 100 μM peptide solution on mica, air-dried, tapping mode
# Experimental: Atomic Force Microscopy (AFM) images of ST14 and T14 peptides were investigated to visualize their nano structures. […] Each sample was left on the mica for about 30 seconds (s) and then rinsed with aliquots of 100 μl of Milli-Q (ultrapure) water to remove unattached peptides. The sample on the mica surface was then air-dried for AFM observation. AFM was performed with Asylum-1 MFP-3D AFM System (Asylum Research, Santa Barbara, Calif.) using a tapping mode. The images utilized an Olympus Si tip (AC240FS). The cantilever's free resonance frequency was 70 kHz.
# [6] = tested on: C57 BL/6 Mouse Mesenchymal Stem Cells (mMSCs); test: Cell viability (cytotoxicity) assay in hydrogel drop cultures; format: cell-based; conditions: 5 million cells/ml, 10% sucrose, peptide concentration over 0.75% (tested 0.50% to 1.5%)
# Experimental: A cell viability (cytotoxicity) assay was performed to measure the ability of ST14 o support the viability of C57 BL/6 Mouse Mesenchymal Stem Cells (mMSCs)—a frequently-used cell line in hydrogel tissue culture systems. The hydrogel was prepared at a concentration of 2.5% and then diluted to concentrations of 1.5%, 1.25%, 1.0%, 0.75%, and 0.50% with sucrose, so that the final concentration of sucrose was 10%. Cells were washed and re-suspended in 10% sucrose to a final concentration of 5 million cells/ml. Cells were centrifuged and the supernatant was removed. The cells were re-suspended in each of the concentrations of hydrogels in 10% sucrose. The protocol was then followed for plating drop cultures and subsequent isolation as described in the PuraMatrix® Guidelines for Use (BD/Corning website).
# [7] = Rheological properties at various concentrations (stress sweep, rheometer); format: physicochemical; conditions: 37° C.; for Loss Modulus (G′) / Storage Modulus (G′): at 1 Pa of oscillation stress; for Loss Modulus (G′) / Storage Modulus (G′) / Max. Viscosity (max η′) / Yield Stress: 10 rad/s; for Max. Viscosity (max η′) / Yield Stress: stress sweep
# Experimental: The rheological properties of the ST14 were evaluated at various concentrations using a rheometer (AR500, TA Instruments) with 40 mm plates. Peptide solution (700 μL) was placed on the rheometer plate and excess solution was gently removed by Kimwipes; measurements were performed after 2 minutes of relaxation time at 37° C. The storage modulus, loss modulus, and viscosity (η′) were measured at 37° C. with the plates placed at a measuring geometry gap of 300 μm, and stress sweep tests were performed at 0.1 Pa˜1000 Pa of oscillation stress with angular frequency at 10 rad/s.
# [8] = Effect of DMEM treatment on rheological properties (storage modulus); format: physicochemical; conditions: 1% peptide; DMEM (pH 7.4) for 2 minutes; 1 Pa, 10 rad/s; 37° C.
# Experimental: The effects of Dulbecco's modified Eagle's medium (DMEM) (pH 7.4) on the rheological properties of ST14 were evaluated on a rheometer (AR500, TA Instruments) with 40 mm plates. DMEM is a cell culture medium that contains 6.4 g/L of NaCl, 3.4 g/L NaHCO3 (sodium bicarbonate), minor amounts of other salts, various amino acids, and 4.5 g/L of glucose. The pH of DMEM is 7.2±0.2 and the osmolality is 335±30 mOsm/Kg H2O; both measurements are close to human physiological fluids such as blood. Peptide solutions (1%) were kept in 4° C. for at least 48 hours before testing. To perform the experiment, 1 mL of peptide solution was gently pipetted and placed on the plate of the rheometer. 2 mL of DMEM solution was gently added around the peptide solution. The peptide solution was treated with DMEM for two minutes, then the media was removed, and the plates were placed at a measuring geometry gap at around 450 μm. Measurements were performed at 37° C. after 2 min of relaxation time. Frequency tests were performed from 1 rad/s to 100 rad/s at 1 Pa of oscillation stress.
# The rheological properties of ST14 (1%) were compared before and after DMEM treatment for 2 minutes in FIG. 14. […]
# [9] = concentration 0.5% in deionized water
# [10] = concentration 1.0% in deionized water
# [11] = concentration 1.5% in deionized water
# [12] = concentration 2.0% in deionized water
# [13] = concentration 2.5% in deionized water
smiles,measurement,setting,value
CC(O)C(N)C(=O)NC(C(=O)NC(C(=O)NC(C(=O)NC(C(=O)NC(C(=O)NC(C(=O)NC(C(=O)NC(C(=O)NC(C(=O)NC(C(=O)NC(C(=O)NC(C(=O)NC(C(=O)O)C(C)O)C(C)O)C(C)O)C(C)O)C(C)O)C(C)O)C(C)O)C(C)O)C(C)O)C(C)O)C(C)O)C(C)O)C(C)O (stereo not drawn) [Peptide T14],degradation during autoclave treatment (mass spec),[1],did not degrade
same,appearance of solution in deionized water,[2]; 1 percent w/v to 5 percent w/v,translucent
same,thickness of solution in deionized water,[2]; 5 percent w/v,formed a thick solution
same,pH,[3]; [9],2.5
same,pH,[3]; [10],2.3
same,pH,[3]; [11],2.2
same,pH,[3]; [12],2.1
same,pH,[3]; [13],2.0
same,gel formation (Congo Red),[4]; below 1%,did not form a gel
same,AFM morphology (nano structure),[5],Aggregates have been detected
CC(O)C(NC(=O)C(CO)NC(=O)C(NC(=O)C(CO)NC(=O)C(NC(=O)C(CO)NC(=O)C(NC(=O)C(CO)NC(=O)C(NC(=O)C(CO)NC(=O)C(NC(=O)C(CO)NC(=O)C(NC(=O)C(N)CO)C(C)O)C(C)O)C(C)O)C(C)O)C(C)O)C(C)O)C(=O)O (stereo not drawn) [ST14] (H-STSTSTSTSTSTST-OH; configuration not given here),cell viability,[6],significantly decreased
same,degradation during autoclave treatment (mass spec),[1],did not degrade
same,appearance of solution in deionized water,[2]; 1 percent w/v to 5 percent w/v,translucent
same,thickness of solution in deionized water,[2]; 1 percent w/v to 5 percent w/v,formed thick solutions
same,Loss Modulus (G′),[7]; Concentration 1,11.4 Pa
same,Storage Modulus (G′),[7]; Concentration 1,67 Pa
same,Max. Viscosity (max η′),[7]; Concentration 1,1.2 Pa-s
same,Yield Stress,[7]; Concentration 1,5.0 Pa
same,Loss Modulus (G′),[7]; Concentration 1.5,9.8 Pa
same,Storage Modulus (G′),[7]; Concentration 1.5,94 Pa
same,Max. Viscosity (max η′),[7]; Concentration 1.5,1.5 Pa-s
same,Yield Stress,[7]; Concentration 1.5,7.9 Pa
same,Loss Modulus (G′),[7]; Concentration 2,17.3 Pa
same,Storage Modulus (G′),[7]; Concentration 2,136 Pa
same,Max. Viscosity (max η′),[7]; Concentration 2,2.0 Pa-s
same,Yield Stress,[7]; Concentration 2,10.0 Pa
same,Loss Modulus (G′),[7]; Concentration 2.5,17.1 Pa
same,Storage Modulus (G′),[7]; Concentration 2.5,167 Pa
same,Max. Viscosity (max η′),[7]; Concentration 2.5,2.2 Pa-s
same,Yield Stress,[7]; Concentration 2.5,15.9 Pa
same,"storage modulus, yield stress, and max. viscosity versus concentration",[7]; concentrations 1 to 2.5,increased with increasing concentration
same,pH,[3]; [9],2.5
same,pH,[3]; [10],2.2
same,pH,[3]; [11],2.1
same,pH,[3]; [12],2.0
same,pH,[3]; [13],1.9
same,gel formation (Congo Red),[4]; 0.5%,did not form a gel
same,fold increase of storage moduli after DMEM treatment,[8],6.9 fold
same,AFM morphology (nano structure),[5],forms self-assembled nanofibers
